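Growth conditions: 96-well plates. Treatment: test compound, 48 hours, 5 concentrations. Analysis: linear interpolation between bracketing concentrations; unreached endpoints set to highest concentration. TGI denotes the concentration required for complete inhibition of growth.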
What was measured:
Assay in all cases: NCI tumour cell line growth inhibition, 48 h
[1] = test system: NCI/ADR-RES ovarian
[2] = test system: NCI-H226 lung
[3] = test system: HT29 colon
[4] = test system: SF-268 CNS
[5] = test system: 786-0 renal
[6] = test system: SW-620 colon
[7] = test system: NCI-H522 lung
[8] = test system: SK-MEL-5 melanoma
[9] = test system: MDA-MB-435
[10] = test system: HOP-92 NSCLC
[11] = test system: UACC-257 melanoma
[12] = test system: UO-31 renal

O=C(/C=C/c1ccc(O)c(O)c1)OCCc1ccc2ccccc2c1
TGI [1]: 18.3 µM
TGI [2]: 32.3 µM
TGI [3]: 25.6 µM
TGI [4]: 27 µM
TGI [5]: 20.9 µM
TGI [6]: 20.7 µM
TGI [7]: 8.35 µM
TGI [8]: 13.2 µM
TGI [9]: 6.63 µM
TGI [10]: 19.6 µM
TGI [11]: 23.3 µM
TGI [12]: 13.1 µM

Source: PubChem BioAssay (NCI)
